Legend:
[1] = biological target: E3 ubiquitin-protein ligase CBL (Homo sapiens) (UniProt P22681); assay: Binding affinity to c-Cbl (unknown origin) assessed as dissociation constant by SPR assay
[2] = biological target: E3 ubiquitin-protein ligase CBL; assay: Inhibition of c-Cbl (unknown origin) expressed in Escherichia coli measured for 90 mins by HTRF method
[3] = biological target: E3 ubiquitin-protein ligase CBL; assay: Inhibition of c-Cbl (unknown origin) by HTRF method
[4] = biological target: E3 ubiquitin-protein ligase CBL; assay: Inhibition of c-Cbl (unknown origin) by TR-FRET assay

`COCC1(NCc2cc3c(c(C(F)(F)F)c2)CN(c2cccc([C@]4(c5nncn5C)C[C@H](OC)C4)c2)C3=O)CC1` [2-(3-((1r,3r)-3-methoxy-1-(4-methyl-4H-1,2,4-triazol-3-yl)cyclobutyl)phenyl)-6-(((1-(methoxymethyl)cyclopropyl)amino)methyl)-4-(trifluoromethyl)isoindolin-1-one] was tested, and the Kd [1] was 210 nM.

Work on `Cn1cnnc1[C@]1(c2cccc(NC(=O)c3cc(CN4CCC[C@H](C(F)F)C4)cn4ccnc34)c2)C[C@H](CC#N)C1` yielded an IC50 [2] of 10 nM.

Compound `CC(c1cc(C(=O)Nc2cccc([C@]3(c4nncn4C)C[C@@H](CC#N)C3)c2)nc2cc[nH]c12)N1CCC[C@H](C)C1` (stereo partly specified) has an IC50 [2] of 40 nM.

`CC(C)[C@H]1CN(C)CCN1Cc1cc(C(=O)Nc2cccc(C3([C@@H](F)c4nncn4C)CC(F)(F)C3)c2)nc(C2CC2)c1` gave an IC50 [3] of 8 nM.

For `Cn1cnnc1-c1cc(C#N)ccc1-c1cc(C2CC2)nc(N2Cc3c(cc(CNCC4(F)CCC4)cc3C(F)(F)F)C2=O)c1`, the IC50 [3] was < 200 nM.

With `C[C@H]1CCCN(Cc2cc(C(F)(F)F)c3[nH]c(-c4cccc([C@]5(c6nncn6C)C[C@@H](C)C5)c4)nc3c2)C1` the IC50 [4] was > 10 µM.

Reference: BindingDB's records for PubMed 38457911 (China Pharmaceutical University)
